From ChEMBL document CHEMBL2062440, “Isolation of spirastrellolides A and B from a marine sponge Epipolasis sp. and their cytotoxic activities” (J Nat Prod, 2012)

System: HeLa
Assay: Cytotoxicity against human HeLa cells after 72 hrs by MTT assay
Format: functional, cell-based

| Compound | IC50 |
| --- | --- |
| COC(=O)[C@H](O)C/C=C\C/C=C/C[C@@H]1O[C@@]23C[C@@H]1OC(=O)C[C@H]1CCC[C@@H](C[C@@H](O)C[C@H](O)C[C@H]4O[C@]5(C=C[C@@H]4C)CC[C@H](OC)[C@H](O5)[C@@H](O)[C@@H](O)[C@@H](C)CC[C@H]4O[C@@](CC[C@@H]2C)(C[C@@H](OC)[C@@H]4Cl)O3)O1 [SPIRASTRELLOLIDE A METHYL ESTER] | 30 nM |
| CO[C@H]1CC[C@]23C=C[C@H](C)[C@@H](C[C@@H](O)C[C@H](O)C[C@@H]4CCC[C@H](CC(=O)O[C@H]5C[C@@]6(O[C@H]5C/C=C/C/C=C\C[C@@H](O)C(=O)O)O[C@]5(CC[C@@H]6C)C[C@@H](OC)[C@H](Cl)[C@@H](CC[C@H](C)[C@H](O)[C@H](O)[C@H]1O2)O5)O4)O3 [SPIRASTRELLOLIDE A] | 20 nM |
| COC(=O)[C@H](O)C/C=C\C/C=C/C[C@@H]1O[C@@]23C[C@@H]1OC(=O)C[C@H]1CCC[C@@H](C[C@@H](O)C[C@H](O)C[C@H]4O[C@@]5(CC[C@H](OC)[C@H](O5)[C@@H](O)[C@@H](O)[C@@H](C)CC[C@@H]5C[C@H](OC)C[C@](CC[C@@H]2C)(O5)O3)CC[C@@H]4C)O1 [SPIRASTRELLOLIDE B METHYL ESTER] | 70 nM |
| CO[C@H]1C[C@H]2CC[C@H](C)[C@H](O)[C@H](O)[C@H]3O[C@]4(CC[C@@H]3OC)CC[C@H](C)[C@@H](C[C@@H](O)C[C@H](O)C[C@@H]3CCC[C@H](CC(=O)O[C@H]5C[C@@]6(O[C@H]5C/C=C/C/C=C\C[C@@H](O)C(=O)O)O[C@](CC[C@@H]6C)(C1)O2)O3)O4 [SPIRASTRELLOLIDE B] | 40 nM |
